Measurements published in patent US10266537B2, “3-acetylenyl-pyrazole-pyrimidine derivative, and preparation method therefor and uses thereof” (Si Chuan University, priority 2015, dated 2019).
Where two headings read alike, the source gives them in different places.

Tests used:
[1] = target: c-Src(T341M) (Homo sapiens (Human), UniProt P12931, T341M); test: Kinase inhibition assay (KinaseProfiler, 33P-ATP); assay type: biochemical; settings: c-Src(T341M); ATP at Km
[2] = target: c-RAF (Homo sapiens (Human), UniProt P04049); test: Kinase inhibition assay (KinaseProfiler, 33P-ATP); assay type: biochemical; settings: for remaining activity at 10 µM: c-RAF(h), compound at 10 μM, read-out: The percentage of the remaining active protein
[3] = target: Yes (Homo sapiens (Human), UniProt P07947); test: Kinase inhibition assay (KinaseProfiler, 33P-ATP); assay type: biochemical; settings: for remaining activity at 10 µM: Yes(h), compound at 10 μM, read-out: The percentage of the remaining active protein; for IC50: Yes, ATP at Km
[4] = target: Fyn (Homo sapiens (Human), UniProt P06241); test: Kinase inhibition assay (KinaseProfiler, 33P-ATP); assay type: biochemical; settings: for remaining activity at 10 µM: Fyn(h), compound at 10 μM, read-out: The percentage of the remaining active protein; for IC50: Fyn, ATP at Km
[5] = target: KDR (Homo sapiens (Human), UniProt P35968); test: Kinase inhibition assay (KinaseProfiler, 33P-ATP); assay type: biochemical; settings: for remaining activity at 10 µM: KDR(h), compound at 10 μM, read-out: The percentage of the remaining active protein; for IC50: KDR, ATP at Km
[6] = target: FGFR1 (Homo sapiens (Human), UniProt P11362); test: Kinase inhibition assay (KinaseProfiler, 33P-ATP); assay type: biochemical
[7] = target: ErbB2 (Homo sapiens (Human), UniProt P04626); test: Kinase inhibition assay (KinaseProfiler, 33P-ATP); assay type: biochemical; settings: for remaining activity at 10 µM: ErbB2(h), compound at 10 μM, read-out: The percentage of the remaining active protein
[8] = target: DDR2 (Homo sapiens (Human), UniProt Q16832); test: Kinase inhibition assay (KinaseProfiler, 33P-ATP); assay type: biochemical; settings: DDR2; ATP at Km
[9] = target: TrkA (Homo sapiens (Human), UniProt P04629); test: Kinase inhibition assay (KinaseProfiler, 33P-ATP); assay type: biochemical; settings: TrkA(h); compound at 10 μM; read-out: The percentage of the remaining active protein
[10] = target: IKKβ (Homo sapiens (Human), UniProt O14920); test: Kinase inhibition assay (KinaseProfiler, 33P-ATP); assay type: biochemical
[11] = target: Axl (Homo sapiens (Human), UniProt P30530); test: Kinase inhibition assay (KinaseProfiler, 33P-ATP); assay type: biochemical; settings: for remaining activity at 10 µM: Axl(h), compound at 10 μM, read-out: The percentage of the remaining active protein
[12] = target: PDGFRα (Homo sapiens (Human), UniProt P16234); test: Kinase inhibition assay (KinaseProfiler, 33P-ATP); assay type: biochemical; settings: for remaining activity at 10 µM: PDGFRα(h), compound at 10 μM, read-out: The percentage of the remaining active protein; for IC50: PDGFRα, ATP at Km
[13] = target: EGFR (Homo sapiens (Human), UniProt P00533); test: Kinase inhibition assay (KinaseProfiler, 33P-ATP); assay type: biochemical; settings: for remaining activity at 10 µM: EGFR(h), compound at 10 μM, read-out: The percentage of the remaining active protein
[14] = target: ALK(h) (Homo sapiens (Human), UniProt Q9UM73); test: Kinase inhibition assay (KinaseProfiler, 33P-ATP); assay type: biochemical; settings: compound at 10 μM, read-out: The percentage of the remaining active protein
[15] = target: EphA8(h) (Homo sapiens (Human), UniProt P29322); test: Kinase inhibition assay (KinaseProfiler, 33P-ATP); assay type: biochemical; settings: compound at 10 μM, read-out: The percentage of the remaining active protein
[16] = target: FAK(h) (Homo sapiens (Human), UniProt Q05397); test: Kinase inhibition assay (KinaseProfiler, 33P-ATP); assay type: biochemical; settings: compound at 10 μM, read-out: The percentage of the remaining active protein
[17] = target: Fer(h) (Homo sapiens (Human), UniProt P16591); test: Kinase inhibition assay (KinaseProfiler, 33P-ATP); assay type: biochemical; settings: compound at 10 μM, read-out: The percentage of the remaining active protein
[18] = target: GSK3β(h) (Homo sapiens (Human), UniProt P49841); test: Kinase inhibition assay (KinaseProfiler, 33P-ATP); assay type: biochemical; settings: compound at 10 μM, read-out: The percentage of the remaining active protein
[19] = target: Met(h) (Homo sapiens (Human), UniProt P08581); test: Kinase inhibition assay (KinaseProfiler, 33P-ATP); assay type: biochemical; settings: compound at 10 μM, read-out: The percentage of the remaining active protein
[20] = target: mTOR(h) (Homo sapiens (Human), UniProt P42345); test: Kinase inhibition assay (KinaseProfiler, 33P-ATP); assay type: biochemical; settings: compound at 10 μM, read-out: The percentage of the remaining active protein
[21] = target: Pim-1(h) (Homo sapiens (Human), UniProt P11309); test: Kinase inhibition assay (KinaseProfiler, 33P-ATP); assay type: biochemical; settings: compound at 10 μM, read-out: The percentage of the remaining active protein
[22] = target: PKA(h) (Homo sapiens (Human), UniProt P17612); test: Kinase inhibition assay (KinaseProfiler, 33P-ATP); assay type: biochemical; settings: compound at 10 μM, read-out: The percentage of the remaining active protein
[23] = target: PKBβ(h) (Homo sapiens (Human), UniProt P31751); test: Kinase inhibition assay (KinaseProfiler, 33P-ATP); assay type: biochemical; settings: compound at 10 μM, read-out: The percentage of the remaining active protein
[24] = target: PKCα(h) (Homo sapiens (Human), UniProt P17252); test: Kinase inhibition assay (KinaseProfiler, 33P-ATP); assay type: biochemical; settings: compound at 10 μM, read-out: The percentage of the remaining active protein
[25] = target: RIPK2(h) (Homo sapiens (Human), UniProt O43353); test: Kinase inhibition assay (KinaseProfiler, 33P-ATP); assay type: biochemical; settings: compound at 10 μM, read-out: The percentage of the remaining active protein
[26] = target: TBK1(h) (Homo sapiens (Human), UniProt Q9UHD2); test: Kinase inhibition assay (KinaseProfiler, 33P-ATP); assay type: biochemical; settings: compound at 10 μM, read-out: The percentage of the remaining active protein
[27] = target: Tec(h) activated (Homo sapiens (Human), UniProt P42680); test: Kinase inhibition assay (KinaseProfiler, 33P-ATP); assay type: biochemical; settings: compound at 10 μM, read-out: The percentage of the remaining active protein
[28] = target: PI3 Kinase a(h) (Homo sapiens (Human), UniProt P42336); test: Kinase inhibition assay (KinaseProfiler, 33P-ATP); assay type: biochemical; settings: PI3 Kinase a(h); compound at 10 μM; read-out: The percentage of the remaining active protein
[29] = tested on: Miapaca-2; test: Cell proliferation inhibition assay (MTT); assay type: cell-based; settings: Homo sapiens, read-out: Proliferation inhibitory activity IC50
Description: (§1) The cells were seeded in 96-well plates with 200 μL of cell suspension per well and incubated overnight in a cell culture medium with a cell concentration of 1 2×10^4 cells/mL. The next day, the supernatant was discarded (the suspension cell was centrifuged before it) and the cells were treated with gradient concentrations of the test compound, respectively. […] After 72 hours, add 20 μL of MTT reagent at a concentration of 5 mg/mL per well. After incubation for 2-4 h, the supernatant was discarded and 150 μL of DMSO was added to each well. […] Relative cell proliferation inhibition rate=([MUT]-[MUT])×100%/[MUT]. The experiment was repeated at least 3 times. Experimental data were expressed as mean, data statistics using t test, P<0.05 for the difference was statistically significant.

[30] = tested on: A549; test: Cell proliferation inhibition assay (MTT); assay type: cell-based; settings: Homo sapiens, read-out: Proliferation inhibitory activity IC50
Description: as §1

[31] = target: Bmx (Homo sapiens (Human), UniProt P51813); test: Kinase inhibition assay (KinaseProfiler, 33P-ATP); settings: for remaining activity at 10 µM: read-out: The percentage of the remaining active protein

PDGFRα, sequence (P16234 24-1089): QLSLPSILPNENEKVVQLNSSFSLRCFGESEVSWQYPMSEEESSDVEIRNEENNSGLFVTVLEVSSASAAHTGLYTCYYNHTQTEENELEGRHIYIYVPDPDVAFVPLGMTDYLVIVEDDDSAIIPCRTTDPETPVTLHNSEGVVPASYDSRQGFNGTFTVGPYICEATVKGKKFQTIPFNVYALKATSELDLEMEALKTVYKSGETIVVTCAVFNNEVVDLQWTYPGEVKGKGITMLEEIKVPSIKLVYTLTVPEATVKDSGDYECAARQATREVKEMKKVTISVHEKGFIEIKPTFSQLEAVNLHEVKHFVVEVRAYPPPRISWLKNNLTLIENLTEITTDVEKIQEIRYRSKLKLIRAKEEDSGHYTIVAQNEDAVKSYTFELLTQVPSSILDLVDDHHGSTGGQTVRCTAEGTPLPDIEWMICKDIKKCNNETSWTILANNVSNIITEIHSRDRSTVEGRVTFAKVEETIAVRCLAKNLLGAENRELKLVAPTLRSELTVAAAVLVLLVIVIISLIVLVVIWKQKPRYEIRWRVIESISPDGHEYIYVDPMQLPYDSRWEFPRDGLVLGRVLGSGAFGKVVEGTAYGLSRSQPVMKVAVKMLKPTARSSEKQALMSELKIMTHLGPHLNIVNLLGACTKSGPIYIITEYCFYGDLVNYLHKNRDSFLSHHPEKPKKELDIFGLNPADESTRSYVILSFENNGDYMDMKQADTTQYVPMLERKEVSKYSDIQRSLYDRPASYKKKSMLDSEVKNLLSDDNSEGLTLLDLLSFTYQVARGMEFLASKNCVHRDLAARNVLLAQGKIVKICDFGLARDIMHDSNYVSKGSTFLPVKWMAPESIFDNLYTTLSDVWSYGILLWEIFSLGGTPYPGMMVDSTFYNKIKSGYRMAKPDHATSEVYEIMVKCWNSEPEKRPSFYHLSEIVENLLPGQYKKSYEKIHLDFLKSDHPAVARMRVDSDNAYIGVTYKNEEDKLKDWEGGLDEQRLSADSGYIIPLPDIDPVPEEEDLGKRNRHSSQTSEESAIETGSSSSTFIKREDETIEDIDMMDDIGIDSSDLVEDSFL
KDR, sequence (P35968 20-1356): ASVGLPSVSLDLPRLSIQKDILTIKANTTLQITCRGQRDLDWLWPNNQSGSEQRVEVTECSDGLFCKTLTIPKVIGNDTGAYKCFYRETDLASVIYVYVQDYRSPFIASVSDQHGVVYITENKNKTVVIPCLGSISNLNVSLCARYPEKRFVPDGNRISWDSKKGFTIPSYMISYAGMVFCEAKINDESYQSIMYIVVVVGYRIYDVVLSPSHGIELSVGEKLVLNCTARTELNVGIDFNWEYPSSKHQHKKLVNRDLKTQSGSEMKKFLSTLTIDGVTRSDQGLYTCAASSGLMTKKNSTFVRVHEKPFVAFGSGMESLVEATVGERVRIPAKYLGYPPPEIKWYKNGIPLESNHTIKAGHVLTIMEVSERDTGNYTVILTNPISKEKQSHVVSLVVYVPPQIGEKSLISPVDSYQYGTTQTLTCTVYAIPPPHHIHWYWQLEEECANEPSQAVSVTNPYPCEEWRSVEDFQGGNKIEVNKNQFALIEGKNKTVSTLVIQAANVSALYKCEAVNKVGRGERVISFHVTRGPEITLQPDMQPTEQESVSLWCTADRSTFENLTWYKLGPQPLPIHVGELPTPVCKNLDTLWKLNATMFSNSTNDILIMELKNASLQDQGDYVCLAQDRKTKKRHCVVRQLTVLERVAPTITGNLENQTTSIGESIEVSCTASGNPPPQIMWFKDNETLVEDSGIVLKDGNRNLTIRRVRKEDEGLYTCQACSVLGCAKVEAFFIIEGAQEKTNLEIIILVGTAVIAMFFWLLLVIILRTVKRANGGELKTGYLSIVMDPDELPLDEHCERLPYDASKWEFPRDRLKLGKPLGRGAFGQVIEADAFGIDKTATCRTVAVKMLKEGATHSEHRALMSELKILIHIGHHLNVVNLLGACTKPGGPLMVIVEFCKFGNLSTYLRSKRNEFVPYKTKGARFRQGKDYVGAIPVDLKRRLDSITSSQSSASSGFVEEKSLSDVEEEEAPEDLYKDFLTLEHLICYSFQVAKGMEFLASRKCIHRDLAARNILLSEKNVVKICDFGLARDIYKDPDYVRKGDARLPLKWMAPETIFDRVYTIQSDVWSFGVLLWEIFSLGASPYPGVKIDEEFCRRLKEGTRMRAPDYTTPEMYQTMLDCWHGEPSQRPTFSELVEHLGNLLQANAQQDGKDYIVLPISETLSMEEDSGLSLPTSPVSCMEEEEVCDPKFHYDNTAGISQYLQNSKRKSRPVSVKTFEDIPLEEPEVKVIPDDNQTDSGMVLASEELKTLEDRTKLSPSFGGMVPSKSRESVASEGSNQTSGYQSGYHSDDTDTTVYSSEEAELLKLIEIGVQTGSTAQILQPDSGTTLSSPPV
Yes, sequence (P07947 whole entry): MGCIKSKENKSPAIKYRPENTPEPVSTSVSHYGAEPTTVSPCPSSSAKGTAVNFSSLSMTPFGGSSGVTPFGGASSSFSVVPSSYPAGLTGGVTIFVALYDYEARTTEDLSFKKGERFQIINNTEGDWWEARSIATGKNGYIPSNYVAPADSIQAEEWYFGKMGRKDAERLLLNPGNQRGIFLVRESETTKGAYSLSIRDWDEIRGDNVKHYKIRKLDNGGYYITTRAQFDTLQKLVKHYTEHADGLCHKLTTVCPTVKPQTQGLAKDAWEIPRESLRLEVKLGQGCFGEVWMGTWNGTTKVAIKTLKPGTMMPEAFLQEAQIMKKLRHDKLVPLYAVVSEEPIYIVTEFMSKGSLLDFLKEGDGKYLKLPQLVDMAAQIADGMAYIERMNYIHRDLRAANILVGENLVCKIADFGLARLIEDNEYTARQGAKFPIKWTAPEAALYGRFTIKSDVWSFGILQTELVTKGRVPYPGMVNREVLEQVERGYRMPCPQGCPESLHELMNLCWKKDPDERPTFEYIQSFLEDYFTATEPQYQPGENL
EGFR, sequence (P00533 25-1210): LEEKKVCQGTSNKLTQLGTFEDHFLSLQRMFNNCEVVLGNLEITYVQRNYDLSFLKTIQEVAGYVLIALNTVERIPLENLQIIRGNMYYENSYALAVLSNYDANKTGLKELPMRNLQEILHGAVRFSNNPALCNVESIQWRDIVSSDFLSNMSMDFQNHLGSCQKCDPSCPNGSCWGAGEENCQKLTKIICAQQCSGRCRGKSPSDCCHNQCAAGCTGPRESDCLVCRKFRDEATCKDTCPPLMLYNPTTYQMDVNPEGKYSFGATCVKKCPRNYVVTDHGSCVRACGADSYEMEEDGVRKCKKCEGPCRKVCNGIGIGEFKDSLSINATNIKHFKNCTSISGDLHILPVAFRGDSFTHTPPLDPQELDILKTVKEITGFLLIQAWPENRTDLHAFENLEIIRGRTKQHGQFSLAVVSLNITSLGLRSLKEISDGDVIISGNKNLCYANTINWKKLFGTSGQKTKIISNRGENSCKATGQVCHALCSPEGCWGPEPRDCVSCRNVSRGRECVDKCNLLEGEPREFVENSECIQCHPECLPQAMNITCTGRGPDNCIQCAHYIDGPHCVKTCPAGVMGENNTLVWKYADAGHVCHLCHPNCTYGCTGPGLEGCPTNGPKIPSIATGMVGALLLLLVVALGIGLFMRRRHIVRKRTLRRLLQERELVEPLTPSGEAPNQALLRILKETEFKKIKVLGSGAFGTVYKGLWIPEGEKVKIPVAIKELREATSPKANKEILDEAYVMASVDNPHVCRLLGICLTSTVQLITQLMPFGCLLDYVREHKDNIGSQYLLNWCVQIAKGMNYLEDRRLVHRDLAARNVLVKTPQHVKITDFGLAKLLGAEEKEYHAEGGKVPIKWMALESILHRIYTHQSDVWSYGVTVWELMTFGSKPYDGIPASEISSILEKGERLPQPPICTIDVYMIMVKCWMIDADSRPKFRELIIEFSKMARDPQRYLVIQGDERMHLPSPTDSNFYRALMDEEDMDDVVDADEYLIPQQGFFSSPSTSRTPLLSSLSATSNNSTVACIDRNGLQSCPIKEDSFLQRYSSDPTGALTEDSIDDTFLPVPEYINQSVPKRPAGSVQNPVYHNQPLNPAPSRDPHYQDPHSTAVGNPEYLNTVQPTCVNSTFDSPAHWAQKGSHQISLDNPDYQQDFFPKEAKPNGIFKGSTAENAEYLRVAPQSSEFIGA
Fyn, sequence (P06241 whole entry): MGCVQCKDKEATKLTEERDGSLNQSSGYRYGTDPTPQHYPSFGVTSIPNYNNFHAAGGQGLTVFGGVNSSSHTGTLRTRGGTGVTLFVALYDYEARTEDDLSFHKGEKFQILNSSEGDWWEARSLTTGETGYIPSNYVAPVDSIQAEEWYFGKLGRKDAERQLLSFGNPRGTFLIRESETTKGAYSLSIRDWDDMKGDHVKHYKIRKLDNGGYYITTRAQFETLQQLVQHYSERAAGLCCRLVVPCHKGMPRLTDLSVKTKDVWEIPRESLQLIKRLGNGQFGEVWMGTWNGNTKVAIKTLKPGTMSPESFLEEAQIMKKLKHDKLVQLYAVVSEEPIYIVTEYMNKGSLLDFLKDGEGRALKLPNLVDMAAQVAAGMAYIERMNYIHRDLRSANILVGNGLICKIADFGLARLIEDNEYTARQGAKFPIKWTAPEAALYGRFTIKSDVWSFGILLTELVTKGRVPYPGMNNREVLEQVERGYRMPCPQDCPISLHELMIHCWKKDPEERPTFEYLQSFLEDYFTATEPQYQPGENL
GSK3β(h), sequence (P49841 whole entry): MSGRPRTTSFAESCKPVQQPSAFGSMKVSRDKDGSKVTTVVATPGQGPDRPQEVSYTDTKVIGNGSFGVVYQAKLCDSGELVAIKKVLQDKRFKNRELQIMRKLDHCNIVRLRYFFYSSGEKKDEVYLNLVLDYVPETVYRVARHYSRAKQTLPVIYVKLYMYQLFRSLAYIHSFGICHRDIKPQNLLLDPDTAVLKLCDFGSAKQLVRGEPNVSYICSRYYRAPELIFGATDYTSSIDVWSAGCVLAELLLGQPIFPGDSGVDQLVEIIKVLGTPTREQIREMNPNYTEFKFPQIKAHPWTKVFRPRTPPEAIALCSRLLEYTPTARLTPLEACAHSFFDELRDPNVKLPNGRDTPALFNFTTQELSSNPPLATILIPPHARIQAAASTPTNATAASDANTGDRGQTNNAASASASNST

Row | Structure (SMILES) | IC50 [1] [nM] | remaining activity at 10 µM [2] [%] | remaining activity at 10 µM [3] [%] | IC50 [3] [nM] | remaining activity at 10 µM [4] [%] | IC50 [4] [nM] | remaining activity at 10 µM [5] [%] | IC50 [5] [nM] | remaining activity at 10 µM [7] [%] | IC50 [8] [nM] | remaining activity at 10 µM [9] [%] | remaining activity at 10 µM [11] [%] | remaining activity at 10 µM [12] [%] | IC50 [12] [nM] | remaining activity at 10 µM [13] [%] | remaining activity at 10 µM [14] [%] | remaining activity at 10 µM [15] [%] | remaining activity at 10 µM [16] [%] | remaining activity at 10 µM [17] [%] | remaining activity at 10 µM [18] [%] | other results
1 | CCn1nc(C#Cc2cc(C(=O)Nc3ccc(CN4CCN(C)CC4)c(C(F)(F)F)c3)ccc2C)c2c(N)ncnc21 [Compound 3] | 30 | 5 | 0 | < 1 | 0 | 5 | 2 | 17 | 3 | 128 | -2 | -4 | 5 | 890 | 30 | 27 | -5 | 43 | 23 | 130 | IC50 ([6]; FGFR1, ATP at Km): 3 nM; IC50 ([10]; IKKβ, ATP at Km): 164 nM; IC50 ([11]; Axl, ATP at Km): 578 nM; IC50 ([13]; EGFR, ATP at Km): 3520 nM; remaining activity at 10 µM [19]: 24%; remaining activity at 10 µM [20]: 96%; remaining activity at 10 µM [21]: 46%; remaining activity at 10 µM [22]: 17%; remaining activity at 10 µM [23]: 52%; remaining activity at 10 µM [24]: 101%; remaining activity at 10 µM [25]: 3%; remaining activity at 10 µM [26]: 75%; remaining activity at 10 µM [27]: 4%; remaining activity at 10 µM [28]: 93%; IC50 ([29]; MIA PaCa-2, 72 h): 12.8 nM; IC50 ([30]; A549, 72 h): 199 nM; IC50 [31]: 6 nM; remaining activity at 10 µM [31]: 0%
2 | Cc1ccc(NC(=O)c2cccc(C(F)(F)F)c2)cc1C#Cc1nn(C2CCN(C)CC2)c2ncnc(N)c12 [Compound 31] | 3730 | 2 | 0 | < 1 | -1 | 3 | 3 | 12 | 2 | 74 | 14 | 15 | 3 | 396 | 15 | 33 | -4 | 26 | 92 | 99 | IC50 ([2]; c-RAF, ATP at Km): 19 nM; remaining activity at 10 µM ([6]; FGFR1(h), compound at 10 μM, read-out: The percentage of the remaining active protein): 0%; IC50 ([7]; ErbB2, ATP at Km): 251 nM; remaining activity at 10 µM ([10]; IKKβ(h), compound at 10 μM, read-out: The percentage of the remaining active protein): 42%; remaining activity at 10 µM [19]: 102%; remaining activity at 10 µM [20]: 81%; remaining activity at 10 µM [21]: 34%; remaining activity at 10 µM [22]: 58%; remaining activity at 10 µM [23]: 14%; remaining activity at 10 µM [24]: 92%; remaining activity at 10 µM [25]: 15%; remaining activity at 10 µM [26]: 83%; remaining activity at 10 µM [27]: 13%; remaining activity at 10 µM [28]: 98%; IC50 ([29]; MIA PaCa-2, Miapaca-2, MTT, 72 hours): 40.4 nM; IC50 ([30]; A549, MTT, 72 hours): 1420 nM; IC50 [31]: 18 nM; remaining activity at 10 µM [31]: 0%
